The values that follow are results of earlier work, collected in paper PMC10254170, “Diastereoselective Synthesis of the Borylated D-Galactose Monosaccharide 3-Boronic-3-Deoxy-D-Galactose and Biological Evaluation in Glycosidase Inhibition and in Cancer for Boron Neutron Capture Therapy (BNCT)” (Molecules, 2023).

The data set has as its system human. Particulars: 5 min; cited from earlier work.

As to `c1ccccc1` [benzene], the LCLO is reported as 20,000 ppm.
